The source of these data is patent US20030129193A1 (priority 2001, published 2003).

Experiment [1] has as its system cancer patients having progressive disease. Conditions: human, in vivo; cited from earlier work.
Experiment [2] has as its system TNFα. The conditions noted are these: cited from earlier work.
The subject of experiment [3] is Mouse endothelial cells. The experiment can be described thus: Cell based two stage coagulation assay. On the procedure: (§1) Mouse endothelial cells were seeded in 48 well tissue culture plates and allowed to adhere overnight. Cells were stimulated with TNFα at the following concentrations: 500 U/ml; 100 U/ml; 20 U/ml; 4 U/ml; 0.8 U/ml; 0.16 U/ml; and with medium only.
Endothelial cells were also tested for coagulant activity in a cell based two stage coagulation assay. After incubation with TNFα, cells were washed and incubated with coagulation factor mix (0.5 μg/ml factor VIIa in a mix containing 2.8 μg/ml factor IX, 3.4 μg/ml factor X, 50 μM phospholipids, in calcium buffer). The supernatant of wells was transferred into a 96 well ELISA plate. Substrate S2765 was added and Factor Xa generation measured.

Experiment [4] concerns tissue factor on HUVEC cells. Kind of experiment: FACS analysis of tissue factor expression. It counts as cell-based, human. Conditions: 6 h at 37°; TNFα 500 U/ml, LPS 10 μg/ml, VEGF 1 nM. As for the experimental part:
To analyze tissue factor expression on the surface of endothelial cells, HUVEC cells were incubated with TNFα (500 U/ml), LPS (10 μg/ml) or vascular endothelial growth factor (VEGF, 1 nM) alone or in combination for 6 h at 37°. Cells were then detached and stained for surface expression of human tissue factor with a sheep-anti-human tissue factor antibody (Haemochrom, Essen, Germany) and an appropriate FITC-conjugated secondary antibody. Fluorescent cells were detected on a flow cytometer (Becton Dickinson. San Jose, Calif.).
(In general: In flow cytometry, cells or beads pass a laser one at a time.)

Experiment [5] has as its system VCAM-1. The experiment can be described thus: FACS for upregulation of VCAM-1. It counts as cell-based, mouse. On the procedure: as §1
Endothelial cells were then investigated for upregulation of the adhesion molecule VCAM-1 by fluorescence activated cell stain (FACS). To this end, cells were stained with an antibody against murine VCAM-1, followed by an appropriate FITC-conjugated secondary antibody. Fluorescent cells were detected on a flow cytometer (Becton Dickinson. San Jose, Calif.).

Experiment [6] has as its system L540 Hodgkin tumors. The experiment can be described thus: Annexin V inhibition of coaguligand-induced thrombosis in vivo. On the set-up: species or system SCID mice. As for the experimental part:
The ability of Annexin V to inhibit coaguligand-induced thrombosis in vivo was examined in L540 Hodgkin-bearing SCID mice.
Four hours after the last injection mice were anesthetized and perfused with heparinized saline. Tumors were removed, fixed with 4% formalin, paraffin-embedded and stained with hematoxylene-eosin. The number of thrombosed and non-thrombosed blood vessels were counted and the percentage of thrombosis was calculated.

Experiment [7] deals with Factor X on IL-1α-stimulated bEnd.3 cells. Kind of experiment: Chromogenic assay of coaguligand-induced Factor Xa formation. It counts as cell-based. The conditions noted are these: 10 μg per ml. On the procedure:
The ability of Annexin V to affect Factor Xa formation induced by coaguligand was determined by a chromogenic assay. […] Annexin V was added at concentrations ranging from 0.1 to 10 μg/ml and cells were incubated for 30 min. before addition of diluted Proplex T. The amount of Factor Xa generated in the presence or absence of Annexin V was determined. Each treatment was performed in duplicate and repeated at least twice.

For experiment [8], the system named is citrated mouse or human plasma. Kind of experiment: In vitro coagulation assay on A20 cells. It counts as cell-based.
For experiment [9], the system named is factor X. Kind of experiment: Factor Xa production assay on A20 cells. It counts as cell-based. Conditions: Factors II, VII and IX present.

For the molecule `NC(=O)c1nnn(Cc2cc(Cl)c(C(=O)c3ccc(Cl)cc3)c(Cl)c2)c1N` [CAI, carboxyamidotriazole], the “disease stabilization, patients” value in experiment [1] is 49%.
`Cc1ccc2c(=O)c3cccc(CC(=O)O)c3oc2c1C` [DMXAA]: the “effectiveness in inducing TNFα, less than endotoxin” value in experiment [2] was 20 fold.
In the case of TNFα, the “dose lower than for VCAM-1 upregulation” value in [3] is reported as 125 fold. In experiment [3] (Factor Xa generation), the “TNFα at which an increase versus negative control could be detected” value was 0,16 U/ml. Besides, the “tissue factor expression on the surface of HUVEC” value in experiment [4] was “upregulated tissue factor expression”. For the same molecule, in experiment [5], the “TNFα required for a measurable increase of VCAM-1 expression” value was 20 U/ml.
For VEGF, the “tissue factor expression on the surface of HUVEC” value in experiment [4] is reported as “upregulated tissue factor expression”.

B1: Annexin V: binds to PS with high affinity (protein, UniProt P08758 2-320, looked up)
Annexin A5: AQVLRGTVTDFPGFDERADAETLRKAMKGLGTDEESILTLLTSRSNAQRQEISAAFKTLFGRDLLDDLKSELTGKFEKLIVALMKPSRLYDAYELKHALKGAGTNEKVLTEIIASRTPEELRAIKQVYEEEYGSSLEDDVVGDTSGYYQRMLVVLLQANRDPDAGIDEAQVEQDAQALFQAGELKWGTDEEKFITIFGTRSVSHLRKVFDKYMTISGFQIEETIDRETSGNLEQLLLAVVKSIRSIPAYLAETLYYAMKGAGTDDHTLIRVMVSRSEIDLFNIRKEFRKNFATSLYSMIKGDTSGDYKKALLLLCGEDD
On to B1, for which the “coaguligand-induced anti-tumor effects after pre-treatment” value in experiment [6] (100 μg Annexin V, 2 hours before 40 μg anti-VCAM-1•tTF) is given as “completely abolished”. Also, the tumor morphology result in experiment [6] (100 μg alone) is reported as “did not alter tumor morphology”. The “inhibition of factor Xa production” value in experiment [7] is on record as 58%.

B2: IgG-H6—N′-cys-tTF219: one molecule of IgG linked via SMPT to one or two molecules of tTF (conjugate)
chain: HHHHHHAMALVPRGSCGTTNTVAAYNLTWKSTNFKTILEWEPKPVNQVYTVQISTKSGDWKSKCFYTTDTECDLTDEIVKDVKQTYLARVFSYPAGNVESTGSAGEPLYENSPEFTPYLETNLGQPTIQSFEQVGTKVNVTVEDERTLVRRNNTFLSLRDVFGKDLIYTLYYWKSSSSGKKTAKTNTNEFLIDVDKGENYCFSVQAVIPSRTVNRKSTDSPVECMGQEKGEFRE
modifications: left off: large carriers
Turning to B2, the “reduction of coagulation-inducing activity relative to monomer / tTF219” value in experiment [8] (less active) stood at 5 fold. Also, the “concentration at which plasma coagulated in 50 seconds” value in [8] (localized on A20 cells via B21-2/10H10) worked out at 5 nM. The “Xa formation, less active than H6—N′-cys-tTF219” value in experiment [9] came out at 2 fold.
